Consider five molecules from patent US20260258084A1, “New Peptides as Selective IL-23 Receptor Antagonists” (Sanofi, priority 2022, published 2026).

Positions of bridges follow the written chain, without caps; N, C: chain ends. Non-standard residues stand in square brackets, D forms with d. Residues, ends and D or L forms follow the SMILES beside them. 2Nal = N[C@@H](Cc1ccc2ccccc2c1)C(=O)O; αMeL = CC(C)C[C@](C)(N)C(=O)O; Pen = CC(C)(S)[C@H](N)C(=O)O; Thp = NC1(C(=O)O)CCOCC1; Aib = CC(C)(N)C(=O)O; Ahx = NCCCCCC(=O)O; Ava = NCCCCC(=O)O

This assay deals with T1, human interleukin-23 receptor (recombinant human IL-23R-Fc chimera) (Homo sapiens, UniProt Q5VWK5).
T1 construct: Fc (IgG Fc fusion)
The assay is described as follows: Human ELISA IL23/IL23R (assay for specific human IL23R antagonists). The class given is binding. The following applies: Table 11, Pen peptide compounds; read-out: Elisa IC50 Pen. The method, then:
Antagonism of compounds for human interleukin-23 receptor antagonists, was determined by an ELISA assay.
A 384-well plate was coated with 50 μl/well of human IL23 at a final concentration of […] and incubated overnight at 4° C. The wells were washed 3 times with 80 μl wash buffer and blocked with 80 μl blocking buffer for 60 minutes at room temperature and washed again. 20 μl of serially diluted test peptides was added to each well and subsequently 20 μl of recombinant human IL-23R-Fc chimera at final concentration of 0.1 μg/ml. The plate was incubated for 60 minutes at room temperature. After the wells were washed, bound IL23R-Fc was detected with goat anti-hu-IgG1-HRP antibody. Signals were visualized with QuantaBlu Fluorogenic Peroxidase Substrate.
In general terms: An ELISA detects its analyte on a solid surface through an enzyme-linked reagent.
With `COc1ccc(C[C@@H]2NC(=O)[C@H]3NC(=O)[C@H](CCC(N)=O)NC(=O)[C@H](Cc4c[nH]c5ccccc45)NC(=O)[C@H]([C@@H](C)O)NC(=O)[C@H](CC(N)=O)NC(=O)[C@@H](NC(=O)CCCCNC(=O)CC[C@@H](C(=O)N[C@@H](CC(N)=O)C(=O)N[C@@H](CC(N)=O)C(N)=O)NC(=O)C(C)(C)NC(=O)[C@H](Cc4ccc5ccccc5c4)NC2=O)C(C)(C)SSC3(C)C)cc1` [compound 159] ([Ava][Pen]NTWQ[Pen]Y(Me)[2Nal][Aib]ENN-NH2; disulfide 2-7; lactam N-11), the IC50 turned out to be 280 nM.

As for `COc1ccc(C[C@@H]2NC(=O)[C@H]3NC(=O)[C@H](CCC(N)=O)NC(=O)[C@H](Cc4c[nH]c5ccccc45)NC(=O)[C@H]([C@@H](C)O)NC(=O)[C@H](CC(N)=O)NC(=O)[C@@H](NC(=O)CCCCCNC(=O)CC[C@@H](C(=O)N[C@@H](CC(N)=O)C(=O)N[C@@H](CC(N)=O)C(N)=O)NC(=O)C(C)(C)NC(=O)[C@H](Cc4ccc5ccccc5c4)NC2=O)C(C)(C)SSC3(C)C)cc1` [compound 160] ([Ahx][Pen]NTWQ[Pen]Y(Me)[2Nal][Aib]ENN-NH2; disulfide 2-7; lactam N-11), the IC50 stood at 72.2 nM.

`COc1ccc(C[C@@H]2NC(=O)[C@H]3NC(=O)[C@H](CCC(N)=O)NC(=O)[C@H](Cc4c[nH]c5ccccc45)NC(=O)[C@H]([C@@H](C)O)NC(=O)[C@H](CC(N)=O)NC(=O)[C@@H](NC(=O)CCCCCNC(=O)CC[C@@H](C(=O)N[C@@H](CC(N)=O)C(=O)NCC(N)=O)NC(=O)C4(CCOCC4)NC(=O)[C@H](Cc4ccc5ccccc5c4)NC2=O)C(C)(C)SSC3(C)C)cc1` [compound 161] ([Ahx][Pen]NTWQ[Pen]Y(Me)[2Nal][Thp]ENG-NH2; disulfide 2-7 (inferred); lactam N-11 (inferred)): the concentration for half-maximal inhibition (IC50) amounted to 76.6 nM.

Turning to `COc1ccc(C[C@@H]2NC(=O)[C@H]3NC(=O)[C@H](CCC(N)=O)NC(=O)[C@H](Cc4c[nH]c5ccccc45)NC(=O)[C@H]([C@@H](C)O)NC(=O)[C@H](CC(N)=O)NC(=O)[C@@H](NC(=O)CCCCCNC(=O)C[C@@H](C(=O)N[C@@H](CC(N)=O)C(=O)N[C@@H](CC(N)=O)C(N)=O)NC(=O)[C@](C)(CC(C)C)NC(=O)[C@H](Cc4ccc5ccccc5c4)NC2=O)C(C)(C)SSC3(C)C)cc1` [compound 162] ([Ahx][Pen]NTWQ[Pen]Y(Me)[2Nal][αMeL]DNN-NH2; disulfide 2-7; lactam N-11), the IC50 stood at 33.5 nM.

With `COc1ccc(C[C@@H]2NC(=O)[C@@H]3CSSC(C)(C)[C@H](NC(=O)CCCCCNC(=O)C[C@@H](C(=O)N[C@@H](CC(N)=O)C(=O)N[C@@H](CC(N)=O)C(N)=O)NC(=O)C(C)(C)NC(=O)[C@H](Cc4ccc5ccccc5c4)NC2=O)C(=O)N[C@@H](CC(N)=O)C(=O)N[C@@H]([C@@H](C)O)C(=O)N[C@@H](Cc2c[nH]c4ccccc24)C(=O)N[C@@H](CCC(N)=O)C(=O)N3)cc1` [compound 164] ([Ahx][Pen]NTWQCY(Me)[2Nal][Aib]DNN-NH2; disulfide 2-7; lactam N-11), the 50% inhibitory concentration (IC50) is 23.1 nM.

For orientation: IC50 means the point on the concentration scale where inhibition reaches its midpoint.
